Measured values taken from PMC11314295, “Discovery of Curcuminoids as Pancreatic Lipase Inhibitors from Medicine-and-Food Homology Plants” (Nutrients, 2024).
≈ marks a conversion by molar mass, not a printed value. Entries after “also recorded” stand apart in the source; their conditions may differ.

How the values were obtained:
[1] = target: T1, pancreatic lipase (Sus scrofa, UniProt P00591); experiment: Enzyme inhibition kinetics (Lineweaver-Burk analysis); assay type: biochemical, porcine; conditions: for inhibition type: Lineweaver-Burk plots, Vmax unchanged; for reversibility of inhibition: plots of v versus enzyme concentration
T1 sequence (P00591 1-450): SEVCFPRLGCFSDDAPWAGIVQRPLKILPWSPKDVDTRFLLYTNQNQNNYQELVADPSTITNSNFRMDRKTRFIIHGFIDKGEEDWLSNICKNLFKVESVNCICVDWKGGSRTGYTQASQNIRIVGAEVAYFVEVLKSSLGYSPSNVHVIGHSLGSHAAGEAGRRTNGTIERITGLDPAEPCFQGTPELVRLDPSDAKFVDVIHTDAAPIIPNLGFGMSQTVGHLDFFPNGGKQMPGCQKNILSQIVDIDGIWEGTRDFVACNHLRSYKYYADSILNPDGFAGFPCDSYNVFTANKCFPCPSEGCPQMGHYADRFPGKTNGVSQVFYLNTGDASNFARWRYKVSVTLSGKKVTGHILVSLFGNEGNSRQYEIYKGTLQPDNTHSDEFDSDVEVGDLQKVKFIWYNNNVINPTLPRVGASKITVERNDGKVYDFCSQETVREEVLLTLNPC

[2] = target: T1, pancreatic lipase; experiment: Fluorescence spectrometry (tryptophan fluorescence quenching, Stern-Volmer); conditions: for ΔS (entropy change) / ΔH (enthalpy): Van't Hoff, 298 and 310 K
[3] = target: T1, pancreatic lipase; experiment: Circular dichroism measurement of secondary structure; design: species or system porcine; conditions: for β-Turn (%) of pancreatic lipase / α-Helix (%) of pancreatic lipase / β-Sheet (%) of pancreatic lipase / Random Coil (%) of pancreatic lipase: lipase:compound molar ratio 1:1, 37 °C, 5 min; for β-Turn (%) of pancreatic lipase: lipase alone 14.8; for α-Helix (%) of pancreatic lipase: lipase alone 17.7; for β-Sheet (%) of pancreatic lipase: lipase alone 25.4; for decrease of β-sheet of pancreatic lipase / increase of α-helix content of pancreatic lipase: relative to pancreatic lipase alone; for Random Coil (%) of pancreatic lipase: lipase alone 42.1
[4] = target: pancreatic lipase; conditions: cited from earlier work
[5] = target: T1, pancreatic lipase; experiment: Affinity screening by ultrafiltration coupled with HPLC; assay type: binding, porcine; conditions: from change of HPLC peak area at 425 nm, turmeric extract, versus heat-inactivated enzyme
[6] = target: T2, pancreatic lipase from porcine pancreas type II (Sus scrofa, UniProt P00591); experiment: Pancreatic lipase inhibition in vitro (p-nitrophenyl butyrate hydrolysis, absorbance 410 nm); assay type: biochemical; conditions: curcuminoid chemical standards
T2 sequence (P00591 1-450): T1 sequence (P00591 1-450)

reversibility of inhibition [1] | Ka (binding constant), bound stated [2] [L/mol] | binding sites [2] | Kq (fluorescence-quenching rate constant) ([2]; 298 K) | n (binding sites) ([2]; 298 K) | ΔG (free energy) ([2]; 298 K) [kJ/mol] | ΔG (free energy) ([2]; 310 K) [kJ/mol] | ΔS (entropy change) [2] [J·mol^−1·K] | β-Turn (%) of pancreatic lipase [3] [%] | α-Helix (%) of pancreatic lipase [3] [%] | β-Sheet (%) of pancreatic lipase [3] [%] | decrease of β-sheet of pancreatic lipase [3] [%] | SMILES | inhibition type [1] | Kq, compared with maximum dynamic quenching constant [2] [L/mol/s] | Kq (fluorescence-quenching rate constant) ([2]; 310 K) | n (binding sites) ([2]; 310 K) | ΔH (enthalpy) [2] [kJ/mol] | binding rate to pancreatic lipase [5] [%] | Random Coil (%) of pancreatic lipase [3] [%] | increase of α-helix content of pancreatic lipase [3] [%] | further results
reversible | > 10000 | ~1 | 1.6 ± 0.07 ×10^12 L·mol^−1·s^−1 | 1.13 ± 0.03 | -22.91 ± 0.24 | -25.02 ± 0.15 | −14.33 ± 0.14 | 15.9 | 21.3 | 21.7 | 14.57 | O=C(/C=C/c1ccc(O)cc1)CC(=O)/C=C/c1ccc(O)cc1 [bisdemethoxycurcumin, Bisdemethoxycurcumin] | competitive inhibitors; also recorded: reversible competitive inhibition | – | – | – | – | – | – | – | –
– | – | – | – | – | – | – | – | – | – | – | – | C=C(C)[C@@H]1CC[C@]2(C(=O)O[C@@H]3O[C@H](CO[C@@H]4O[C@H](CO)[C@@H](O[C@@H]5O[C@@H](C)[C@H](O)[C@@H](O)[C@H]5O)[C@H](O)[C@H]4O)[C@@H](O)[C@H](O)[C@H]3O)CC[C@]3(C)[C@H](C[C@H]4OC(=O)C[C@@H](O)[C@]5(C)[C@@H]4[C@@]3(C)CC[C@H]5C(=C)C)[C@@H]12 [chiisanoside] | – | – | – | – | – | – | – | – | IC50 [4]: 0.74 mg/mL (≈ 775 µM)
reversible | > 10000 | ~1 | 1.94 ± 0.10 ×10^12 L·mol^−1·s^−1 | 1.14 ± 0.02 | -24.11 ± 0.13 | -26.44 ± 0.25 | −23.99 ± 0.10 | 15.7 | 34.3 | 15.3 | 39.76 | COc1cc(/C=C/C(=O)CC(=O)/C=C/c2ccc(O)c(OC)c2)ccc1O [curcumin, Curcumin] | competitive inhibitors; also recorded: reversible competitive inhibition | > 2e+10 | 4.28 ± 0.25 ×10^12 L·mol^−1·s^−1 | 1.2 ± 0.02 | -33.88 ± 0.30 | 54.69 | 34.7 | 93.78 | –

SMILES | reversibility of inhibition [1] | Ka (binding constant), bound stated [2] [L/mol] | binding sites [2] | Kq (fluorescence-quenching rate constant) ([2]; 298 K) | n (binding sites) ([2]; 298 K) | ΔG (free energy) ([2]; 298 K) [kJ/mol] | ΔG (free energy) ([2]; 310 K) [kJ/mol] | ΔS (entropy change) [2] [J·mol^−1·K] | β-Turn (%) of pancreatic lipase [3] [%] | α-Helix (%) of pancreatic lipase [3] [%] | β-Sheet (%) of pancreatic lipase [3] [%] | decrease of β-sheet of pancreatic lipase [3] [%] | inhibition type [1] | Kq, compared with maximum dynamic quenching constant [2] [L/mol/s] | Kq (fluorescence-quenching rate constant) ([2]; 310 K) | n (binding sites) ([2]; 310 K) | ΔH (enthalpy) [2] [kJ/mol] | binding rate to pancreatic lipase [5] [%] | Random Coil (%) of pancreatic lipase [3] [%] | increase of α-helix content of pancreatic lipase [3] [%] | further results
COc1cc(/C=C/C(O)=C/C(=O)/C=C/c2ccc(O)cc2)ccc1O [demethoxycurcumin, Demethoxycurcumin] | reversible | > 10000 | ~1 | 1.64 ± 0.13 ×10^12 L·mol^−1·s^−1 | 1.12 ± 0.04 | -23.28 ± 0.14 | -25.48 ± 0.21 | −18.82 ± 0.09 | 16.5 | 26.4 | 16.9 | 33.46 | competitive inhibitors; also recorded: reversible competitive inhibition | > 2e+10 | 3.61 ± 0.24 ×10^12 L·mol^−1·s^−1 | 1.40 ± 0.01 | -31.31 ± 0.22 | 49.33 | 40.2 | 49.15 | Ki ([1]; pancreatic lipase 5 mg/mL, p-nitrophenyl butyrate substrate, read-out: Ki (inhibition constant)): 840 ± 40 µM; maximum emission peak of pancreatic lipase after addition (blueshift from 350 nm) ([2]; excitation 280 nm): 342 nm; IC50 [6]: 3.31 mM
